Laboratory results taken from patent US20030073850A1, “4-Imidazole derivatives of benzyl and restricted benzyl sulfonamides, sulfamides, ureas, carbamates, and amides and their use” (priority 1998, published 2003).
Counter-ions that a name gives are not always drawn.

Target: T1, α1b (hamster receptor expressed in mouse fibroblasts) (Mesocricetus auratus, UniProt P18841)
T1 construct: expressed in transfected cells; host or cells: mouse fibroblasts
T1 sequence (P18841 1-515): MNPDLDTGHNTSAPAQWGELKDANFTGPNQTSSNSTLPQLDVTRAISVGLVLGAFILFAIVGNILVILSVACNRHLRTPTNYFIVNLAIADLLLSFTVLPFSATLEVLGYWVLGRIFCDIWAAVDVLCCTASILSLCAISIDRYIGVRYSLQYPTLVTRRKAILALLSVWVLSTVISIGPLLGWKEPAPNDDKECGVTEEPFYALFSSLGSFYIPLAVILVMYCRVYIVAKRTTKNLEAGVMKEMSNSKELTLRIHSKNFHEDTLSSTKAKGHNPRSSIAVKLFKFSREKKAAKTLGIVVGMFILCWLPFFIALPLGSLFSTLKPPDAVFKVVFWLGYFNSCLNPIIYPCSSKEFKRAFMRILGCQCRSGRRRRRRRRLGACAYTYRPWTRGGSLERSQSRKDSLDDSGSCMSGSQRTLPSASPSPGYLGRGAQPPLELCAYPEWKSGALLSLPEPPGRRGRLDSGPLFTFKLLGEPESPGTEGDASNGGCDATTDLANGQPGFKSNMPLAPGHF
Test: Radioligand binding, [3H]-prazosin, α1b
Settings: hamster receptor expressed in mouse fibroblasts, [3H]-prazosin; read-out: Radioligand Binding Ki α1b (Hamster)
Experimental: For purposes of discussing a, adrenoceptor subtypes, the IUPHAR convention of using lower case letters to define molecular clones and upper case letters to indicate pharmacologically defined adrenoceptors has been followed. Compounds of formula I were evaluated in radioligand binding assays specific for α1A (rat submaxillary gland), α1b (hamster receptor expressed in mouse fibroblasts) and α1d (rat receptor expressed in mouse fibroblasts) using [^3H]-prazosin as the radioligand as described in Knepper, et al. J. Pharm.

**Q.** Which Ki does the source give for `O=C(O)/C=C\C(=O)O.O=S(=O)(CC(F)(F)F)Nc1cccc2c1CCCC2c1c[nH]cn1` (centres unmarked) [Example 20, N-[5,6,7,8-tetrahydro-5-(1H-imidazol-4-yl)-1-naphthalenyl]-2,2,2-trifluoroethanesulfonamide, Maleate] here?
**A.** 10 µM

**Q.** For `CS(=O)(=O)Nc1ccc(Cl)c2c1CCCC2c1c[nH]cn1.O=C(O)/C=C\C(=O)O` (centres unmarked) [Example 43, N-[4-chloro-5-(1H-imidazol-4-yl)-5,6,7,8-tetrahydro-1-naphthalenyl]methanesulfonamide, Maleate], which Ki is on record?
**A.** 10 µM

**Q.** For “N-[5,6,7,8-tetrahydro-5-(1H-imidazol-4-yl)-1-naphthalenyl]-2-methylethanesulfonamide, Maleate [Example 18]”, which Ki is on record?
**A.** 10 µM

**Q.** Which Ki does the source give for `CCn1cnc(C2CCCc3c2ccc(O)c3NS(C)(=O)=O)c1` (centres unmarked) [Example 6, N-[5-(1-ethyl-1H-imidazol-4-yl)-2-hydroxy-5,6,7,8-tetrahydro-1-naphthalenyl]methanesulfonamide, Hydrochloride] here?
**A.** 100 µM

**Q.** With `O=S(=O)(Nc1cccc2c1CCCC2c1c[nH]cn1)C1CC1` (centres unmarked) [Example 27, N-[5,6,7,8-tetrahydro-(1H-imidazol-4-yl)-1-naphthalenyl]cyclopropanesulfonamide, Maleate] as the compound, how does the Ki read?
**A.** 10 µM

Test system: not given
Test: not given
Settings: not given

**Q.** For `CCS(=O)(=O)Nc1cccc(C(C)c2c[nH]cn2)c1.O=C(O)/C=C\C(=O)O` (centres unmarked), which melting point is on record?
**A.** 114 to 119 °C

**Q.** With `Cl.Cn1cncc1C1CCCc2c1ccc(O)c2NS(C)(=O)=O` (centres unmarked) [Example 4, N-[2-hydroxy-5-(1-methyl-1H-imidazol-5-yl)-5,6,7,8-tetrahydro-1-naphthalenyl]methanesulfonamide, Hydrochloride] as the compound, how does the melting point read?
**A.** 260 °C

**Q.** For `CCS(=O)(=O)Nc1cccc(Cc2c[nH]cn2)c1O.O=C(O)/C=C\C(=O)O`, which melting point is on record?
**A.** 155 to 157 °C

**Q.** For `CCC(O)(c1cccc(NS(=O)(=O)CC)c1)c1c[nH]cn1` (centres unmarked) [Example 55, N-[3-(1-hydroxy-1-(1H-imidazol-4-yl)propyl)phenyl]ethanesulfonamide], which melting point is on record?
**A.** 120 to 124 °C

**Q.** For `O=C(O)/C=C\C(=O)O.O=S(=O)(CC(F)(F)F)Nc1cccc2c1CCCC2c1c[nH]cn1` (centres unmarked) [Example 20, N-[5,6,7,8-tetrahydro-5-(1H-imidazol-4-yl)-1-naphthalenyl]-2,2,2-trifluoroethanesulfonamide, Maleate], which melting point is on record?
**A.** 138 to 140 °C

**Q.** Which melting point does the source give for `CS(=O)(=O)Nc1c(O)ccc2c1CCCC2c1c[nH]cn1.Cl` (centres unmarked) [Example 2, N-[2-hydroxy-5-(1H-imidazol-4-yl)-5,6,7,8-tetrahydro-1-naphthalenyl]methanesulfonamide, Hydrochloride] here?
**A.** 135 to 137 °C

**Q.** Which melting point does the source give for `Cc1c(Cc2c[nH]cn2)cccc1NS(C)(=O)=O.O=C(O)/C=C\C(=O)O` here?
**A.** 143 to 144 °C

**Q.** Which melting point does the source give for `O=S(=O)(CC(F)(F)F)Nc1cccc2c1OCCC2c1c[nH]cn1` (single isomer, unassigned) (as salt: maleic acid salt) [Example 88, 2,2,2-trifluoro-N-[4-(1H-imidazol-4-yl)-3,4-dihydro-2H-chromen-8-yl]ethanesulfonamide] here?
**A.** 173 to 176 °C

**Q.** With `C=C(c1cccc(NS(C)(=O)=O)c1)c1c[nH]cn1` (as salt: maleic acid salt) [Example 92, N-{3-[1-(1H-imidazol-4-yl)vinyl]phenyl}methanesulfonamide] as the compound, how does the melting point read?
**A.** 167 to 170 °C

**Q.** With `CC(c1cccc(NS(C)(=O)=O)c1)c1c[nH]cn1.Cl` (centres unmarked) as the compound, how does the melting point read?
**A.** 195 to 196 °C

**Q.** Which melting point does the source give for `CCS(=O)(=O)Nc1cccc(Cc2c[nH]cn2)c1Cl` here?
**A.** 182 to 184 °C

**Q.** Which melting point does the source give for `COc1ccc2c(c1NS(C)(=O)=O)CCCC2c1c[nH]cn1.Cl` (centres unmarked) [Example 1, N-[5-(1H-imidazol-4-yl)-2-methoxy-5,6,7,8-tetrahydro-1-naphthalenyl]methanesulfonamide hydrochloride] here?
**A.** 209 to 211 °C

**Q.** With `Cc1cc(Cc2c[nH]cn2)c(C)c(NS(C)(=O)=O)c1` as the compound, how does the melting point read?
**A.** 197 to 199 °C

**Q.** With `CCS(=O)(=O)Nc1cc(Br)cc(Cc2c[nH]cn2)c1` as the compound, how does the melting point read?
**A.** 194 to 196 °C

**Q.** Which melting point does the source give for `CS(=O)(=O)Nc1cccc2c1OCCC2c1c[nH]cn1.O=C(O)/C=C\C(=O)O` (centres unmarked) [Example 19, N-[4-(1H-imidazol-4-yl)-3,4-dihydro-2H-chromen-8-yl]methanesulfonamide, Maleate] here?
**A.** 172 to 174 °C

**Q.** For `CCS(=O)(=O)Nc1cc(Cc2c[nH]cn2)ccc1C`, which melting point is on record?
**A.** 140 to 152 °C

**Q.** With `CCS(=O)(=O)Nc1cc(Cc2c[nH]cn2)ccc1Cl` as the compound, how does the melting point read?
**A.** 159 to 160 °C

**Q.** For `CS(=O)(=O)Nc1cccc2c1CCC=C2c1c[nH]cn1.O=C(O)/C=C\C(=O)O` [Example 47, N-[5-(1H-imidazol-4-yl)-7,8-dihydro-1-naphthalenyl]methanesulfonamide, Maleate], which melting point is on record?
**A.** 161 to 165 °C

**Q.** With `CS(=O)(=O)Nc1ccc(Cl)c2c1CCCC2c1c[nH]cn1.O=C(O)/C=C\C(=O)O` (centres unmarked) [Example 43, N-[4-chloro-5-(1H-imidazol-4-yl)-5,6,7,8-tetrahydro-1-naphthalenyl]methanesulfonamide, Maleate] as the compound, how does the melting point read?
**A.** 175 to 178 °C

**Q.** With `CS(=O)(=O)Nc1ccc(F)c(Cc2c[nH]cn2)c1.O=C(O)/C=C\C(=O)O` as the compound, how does the melting point read?
**A.** 146 to 147 °C

**Q.** Which melting point does the source give for `CCS(=O)(=O)Nc1c(C)ccc2c1CCCC2c1c[nH]cn1` (centres unmarked) here?
**A.** 196 to 199 °C

**Q.** For `O=C(O)/C=C\C(=O)O.O=S(=O)(CC(F)(F)F)Nc1cccc(Cc2c[nH]cn2)c1`, which melting point is on record?
**A.** 161 to 162 °C

**Q.** Which melting point does the source give for `CCS(=O)(=O)Nc1cccc2c1CCCC2c1c[nH]cn1.O=C(O)/C=C\C(=O)O` (centres unmarked) [Example 12, N-[5-(1H-imidazol-4-yl)-5,6,7,8-tetrahydro-1-naphthalenyl]ethanesulfonamide Maleate] here?
**A.** 129 to 132 °C

**Q.** For `CCS(=O)(=O)Nc1cc(Cl)cc(Cc2c[nH]cn2)c1Cl`, which melting point is on record?
**A.** 182 to 184 °C

**Q.** For `CCS(=O)(=O)Nc1cc(C)cc(Cc2c[nH]cn2)c1C`, which melting point is on record?
**A.** 167 to 169 °C

**Q.** Which melting point does the source give for `Cl.Cn1cnc(C2CCCc3c2ccc(O)c3NS(C)(=O)=O)c1` (centres unmarked) [Example 5, N-[2-hydroxy-5-(1-methyl-1H-imidazol-4-yl)-5,6,7,8-tetrahydro-1-naphthalenyl]methanesulfonamide Hydrochloride] here?
**A.** 256 to 258 °C

**Q.** For `CS(=O)(=O)Nc1cccc2c1CCC2c1c[nH]cn1.O=C(O)/C=C\C(=O)O` (centres unmarked) [Example 22, N-[1-(1H-imidazol-4-yl)-2,3-dihydro-1H-inden-4-yl]methanesulfonamide, Maleate], which melting point is on record?
**A.** 168 to 169 °C

**Q.** Which melting point does the source give for `CS(=O)(=O)Nc1cc(Cc2c[nH]cn2)ccc1O.Cl` here?
**A.** 167 to 169 °C

**Q.** Which melting point does the source give for `CCS(=O)(=O)Nc1cc(Cc2c[nH]cn2)ccc1F` here?
**A.** 122 to 123 °C

**Q.** Which melting point does the source give for `Cc1nc(C2CCCc3c2ccc(O)c3NS(C)(=O)=O)c[nH]1.Cl` (centres unmarked) [Example 3, N-[2-hydroxy-5-(2-methyl-1H-imidazol-4-yl)-5,6,7,8-tetrahydro-1-naphthalenyl]methanesulfonamide, hydrochloride] here?
**A.** 233 to 235 °C

**Q.** Which melting point does the source give for `CCS(=O)(=O)Nc1cccc(/C(=C/OC)c2c[nH]cn2)c1.O=C(O)/C=C\C(=O)O` [Example 46, N-{3-[(Z)-1-(1H-imidazol-4-yl)-2-methoxyethenyl]phenyl}ethanesulfonamide, Maleate] here?
**A.** 146 to 148 °C

**Q.** Which melting point does the source give for `CS(=O)(=O)Nc1cccc2c1CCC[C@H]2c1c[nH]cn1` [Example 9, (+)-N-[(5R)-5-(1H-imidazol-4-yl)-5,6,7,8-tetrahydro-1-naphthalenyl]methanesulfonamide] here?
**A.** 118 to 123 °C

**Q.** For `CCS(=O)(=O)Nc1cccc(Cc2c[nH]cn2)c1OC`, which melting point is on record?
**A.** 185 to 186 °C

**Q.** Which melting point does the source give for `CCS(=O)(=O)Nc1cc(Br)cc(Cc2c[nH]cn2)c1C` here?
**A.** 202 to 204 °C

**Q.** For `CC(c1cccc(NS(C)(=O)=O)c1)c1c[nH]cn1.O=C(O)/C=C\C(=O)O` (centres unmarked), which melting point is on record?
**A.** 135 to 136 °C

**Q.** For `CCS(=O)(=O)Nc1ccc(C)c(Cc2c[nH]cn2)c1`, which melting point is on record?
**A.** 194 to 196 °C
